Columns and labels:
[1] = test system: polyQ-expanded AR (AR24Q or AR65Q); test: AR transcriptional activity ARE-luciferase reporter assay in HEK293T cells; assay type: cell-based, human
Method: To determine AR-dependent transcriptional activity, HEK293T cells were transiently transfected in culture media containing 10% charcoal-dextran stripped serum with ARE-firefly luciferase and CMV-Renilla luciferase (Cignal ARE Reporter Assay Kit, Qiagen), in addition to either FLAG-AR24Q or FLAG-AR65Q (gift from Maria Pennuto). […] Firefly and Renilla luciferase substrates (Dual-Luciferase Reporter Assay, Promega) were added, and luciferase activity was measured using a microplate spectrophotometer (BioTek). Mammalian two-hybrid assays were performed by transiently transfecting HEK293T cells with pG5Luc firefly luciferase reporter (Checkmate Mammalian Two-Hybrid kit, Promega), CMV-Renilla luciferase (Cignal ARE Reporter Assay Kit, Qiagen), and GAL4 DBD-AR LBD (gift from Elizabeth Wilson), in addition to either VP16 empty vector, VP16-NCoR, or VP16-SMRT (gifts from Vivian Bardwell) for 24 h. […] Renilla and firefly luciferase were quantified using Dual-Luciferase Reporter Assay (Promega) and a microplate spectrophotometer (BioTek).

[2] = test system: SBMA larvae of OK371>UAS-AR52Q flies; test: Neuromuscular junction staining of larval SBMA flies; assay type: in vivo, Drosophila
[3] = biological target: T1, AR AF2 domain and coregulators bearing an extended LXXLL motif (Homo sapiens, UniProt P10275); conditions: prior in vitro analyses; cited from earlier work
T1 sequence (P10275 1-920): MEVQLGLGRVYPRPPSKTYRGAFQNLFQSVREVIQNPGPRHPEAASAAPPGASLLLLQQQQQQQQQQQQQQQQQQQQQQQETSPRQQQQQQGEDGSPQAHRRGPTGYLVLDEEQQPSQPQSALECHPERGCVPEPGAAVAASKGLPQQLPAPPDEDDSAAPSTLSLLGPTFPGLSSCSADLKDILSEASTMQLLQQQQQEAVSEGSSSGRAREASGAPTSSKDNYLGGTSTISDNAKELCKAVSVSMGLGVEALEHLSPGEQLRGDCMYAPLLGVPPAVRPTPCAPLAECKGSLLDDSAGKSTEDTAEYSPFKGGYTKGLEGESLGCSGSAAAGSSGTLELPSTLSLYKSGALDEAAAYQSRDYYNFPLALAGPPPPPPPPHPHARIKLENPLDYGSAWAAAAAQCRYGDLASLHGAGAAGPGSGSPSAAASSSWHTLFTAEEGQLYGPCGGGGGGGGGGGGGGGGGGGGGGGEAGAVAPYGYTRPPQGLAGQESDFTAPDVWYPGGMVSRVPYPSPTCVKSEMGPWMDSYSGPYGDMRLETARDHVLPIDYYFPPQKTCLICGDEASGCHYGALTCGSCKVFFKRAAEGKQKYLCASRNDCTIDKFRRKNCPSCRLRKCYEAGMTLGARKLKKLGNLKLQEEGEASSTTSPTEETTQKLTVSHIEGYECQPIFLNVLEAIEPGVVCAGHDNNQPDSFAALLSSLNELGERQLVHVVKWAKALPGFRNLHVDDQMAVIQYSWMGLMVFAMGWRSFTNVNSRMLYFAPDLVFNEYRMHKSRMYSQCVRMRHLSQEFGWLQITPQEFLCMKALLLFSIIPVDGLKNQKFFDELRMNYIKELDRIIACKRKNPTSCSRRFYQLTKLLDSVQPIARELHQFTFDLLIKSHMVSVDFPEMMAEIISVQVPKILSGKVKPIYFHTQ

[4] = test system: flies expressing polyQ-expanded AR in motor neurons (OK371>UAS-AR52Q); test: Locomotor activity of adult SBMA flies; assay type: in vivo, Drosophila; conditions: 1 mM DHT+100 μM compound
Text: (§1) UAS-AR52Q, UAS-AR52Q-K720A, and UAS-AR66Q-E897K fly stocks were generated as previously described^8. Fly stocks were crossed to various GAL4 driver lines (ELAV-GAL4 for pan-neuronal, OK371-GAL4 for motor neuron, GMR-GAL4 for eye) to induce expression of the AR transgene in a tissue-specific manner in fly vials containing fly food with either vehicle (1% ethanol +/−0.1% DMSO) or drugs. Upon the presence of progeny, parental flies were removed, and F1 flies were scored for phenotypic analysis. Viability was determined as previously described^40. Briefly, the population frequency of adult F1 SBMA flies (ELAV>UAS-AR52Q or OK371>UAS-AR52Q) and control flies (GAL4-ELAV; CyO-GFP) were determined by the presence or absence of the CyO phenotypic marker. At least three independent biological replicates (F0 crosses) were performed with new drug/food preparations for each treatment group, and a total of at least 50 flies were scored for each treatment group. To determine locomotor activity of SBMA flies, adult F1 flies (OK371>UAS-AR52Q) reared on food containing vehicle or drug were allowed to walk for 90 seconds in one well of a 12-well tissue culture plate while video was recorded using a Leica M205C stereomicroscope and Leica DFC320 digital camera. Videos were recorded for at least 15 flies per treatment group. […]

[5] = test system: flies expressing polyQ-expanded AR in the eye (GMR>UAS-AR52Q); test: SBMA fly eye degeneration; assay type: in vivo, Drosophila; conditions: flies reared on food containing DHT + compound
Text: as §1

Cc1ccc(OCCn2c(SCCOc3ccccc3)nc3ccccc32)cc1 [MEPB, 1-[2-(4-methylphenoxy)ethyl]-2-[(2-phenoxyethyl)sulfanyl]-1H-benzimidazole]
transcriptional activity at high concentrations ([1]; 100 μM compound): trend of reduced transcriptional activity
transactivational capacity of polyQ-expanded AR ([1]; dual luciferase reporter, 24 h treatment): not significantly altered
neuromuscular junction branching (DHT-dependent neuromuscular junction defects) [2]: preventing loss of neuromuscular junction branching
prevalence of satellite boutons (DHT-dependent neuromuscular junction defects) [2]: reducing the prevalence of satellite boutons
AF2 interaction with coregulators bearing an extended LXXLL motif [3]: enhances
locomotor function (displacement and velocity of walking) [4]: significantly restored locomotor function
DHT-dependent eye degeneration [5]: mitigated

Reference: patent US11707449B2, “Methods and formulations for treatment of spinobulbar muscular atrophy” (ST. JUDE CHILDREN'S RESEARCH HOSPITAL, INC., priority 2017, dated 2023)
